According to US20230066946A1, “1,5-DIPHENYLPYRAZOLYL-3-OXYALKYL ACIDS AND 1-PHENYL-5-THIENYLPYRAZOLYL-3-OXYALKYL ACIDS AND THE USE THEREOF FOR CONTROL OF UNWANTED PLANT GROWTH” (Bayer Aktiengesellschaft, priority 2019, published 2023):

How the values were obtained:
[1] = tested on: SETVI; test: Pre-emergence herbicidal action against SETVI; format: in vivo, Setaria viridis; details: 1280 g/ha, scored visually after about 3 weeks vs untreated controls
How it was run: (§1)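 Greenhouse pot test on sown, soil-covered weed seeds; spray of WP or EC formulation at 1280 or 320 g/ha onto covering soil. Effect rated visually after about 3 weeks (0% = like control, 100% = dead).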

[2] = tested on: AMARE; test: Pre-emergence herbicidal action against AMARE; format: in vivo, Amaranthus retroflexus; details: scored visually after about 3 weeks vs untreated controls; for Pre-emergence action at 320 g/ha against AMARE in %: 100% = plants have died, 0% = like control plants; for Pre-emergence action against AMARE in %: 1280 g/ha
How it was run: as §1

[3] = tested on: VERPE; test: Post-emergence herbicidal action against VERPE; format: in vivo, Veronica persica; details: 320 g/ha, visual rating about 3 weeks after treatment
Protocol: (§2) [table] Seeds of mono- and dicotyledonous weed plants are placed in plastic pots in sandy loam soil (twin sowing with one species each of mono- or dicotyledonous weed plants per pot), covered with soil and cultivated in a greenhouse under controlled growth conditions. 2 to 3 weeks after sowing, the test plants are treated at the one-leaf stage. The compounds of the invention, formulated in the form of wettable powders (WP) or as emulsion concentrates (EC), are applied to the green parts of the plants as aqueous suspension or emulsion with addition of 0.5% additive at a water application rate equivalent to 600 litres per hectare. After the test plants have been kept in the greenhouse under optimum growth conditions for about 3 weeks, the activity of the preparations is rated visually in comparison to untreated controls. For example, 100% activity=the plants have died, 0% activity=like control plants. Tables 5.1-5.16 below show the effects of selected compounds of the general formula (I) according to Tables 1 to 3 on various harmful plants at an application rate corresponding to 1280 or 320 g/ha, which have been obtained by the aforementioned experimental method.

[4] = tested on: VERPE; test: Pre-emergence herbicidal action against VERPE; format: in vivo, Veronica persica; details: 320 g/ha, scored visually after about 3 weeks vs untreated controls
Source text: (§3) Seeds of mono- and dicotyledonous weed plants are placed in plastic pots in sandy loam soil (doubly sown with one species each of mono- or dicotyledonous weed plants per pot) and covered with soil. The compounds of the invention, formulated in the form of wettable powders (WP) or as emulsion concentrates (EC), are then applied onto the surface of the covering soil as aqueous suspension or emulsion with addition of 0.5% additive at a water application rate equivalent to 600 litres per hectare. After the treatment, the pots are placed in a greenhouse and kept under good growth conditions for the trial plants. After about 3 weeks, the effect of the preparations is scored visually in comparison with untreated controls as percentages. For example, 100% activity=the plants have died, 0% activity=like control plants. [table] Tables 4.1-4.15 below show the effects of selected compounds of the general formula (I) according to Tables 1 to 3 on various harmful plants at an application rate corresponding to 1280 or 320 g/ha, which have been obtained by the aforementioned experimental method.

[5] = tested on: ECHCG; test: Pre-emergence herbicidal action against ECHCG; format: in vivo, Echinochloa crus-galli; details: scored visually after about 3 weeks vs untreated controls, 100% = plants have died, 0% = like control plants
Source text: as §3

[6] = tested on: VIOTR; test: Post-emergence herbicidal action against VIOTR; format: in vivo, Viola tricolor; details: 320 g/ha, visual rating about 3 weeks after treatment
Protocol: as §2

[7] = tested on: AMARE; test: Post-emergence herbicidal action against AMARE; format: in vivo, Amaranthus retroflexus; details: visual rating about 3 weeks after treatment
How it was run: (§4)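 Herbicidal effect, rated visually about 3 weeks after treatment as percent versus untreated controls. Test plants in sandy loam had received a foliar application at the one-leaf stage of 1280 or 320 g/ha, formulated as WP or EC with 0.5% additive in 600 litres per hectare water.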

[8] = tested on: STEME; test: Pre-emergence herbicidal action against STEME; format: in vivo, Stellaria media; details: scored visually after about 3 weeks vs untreated controls
How it was run: as §1

[9] = tested on: PHBPU; test: Post-emergence herbicidal action against PHBPU; format: in vivo, Pharbitis purpurea; details: 320 g/ha, visual rating about 3 weeks after treatment
Protocol: as §2

[10] = tested on: POLCO; test: Pre-emergence herbicidal action against POLCO; format: in vivo, Polygonum convolvulus; details: 320 g/ha, scored visually after about 3 weeks vs untreated controls
Source text: as §3

[11] = tested on: POLCO; test: Post-emergence herbicidal action against POLCO; format: in vivo, Polygonum convolvulus; details: 320 g/ha, visual rating about 3 weeks after treatment
Protocol: as §2

[12] = tested on: STEME; test: Post-emergence herbicidal action against STEME; format: in vivo, Stellaria media; details: 1280 g/ha, visual rating about 3 weeks after treatment
How it was run: as §4

[13] = tested on: MATIN; test: Post-emergence herbicidal action against MATIN; format: in vivo, Matricaria inodora; details: visual rating about 3 weeks after treatment
How it was run: as §4

[14] = tested on: SETVI; test: Post-emergence herbicidal action against SETVI; format: in vivo, Setaria viridis; details: 1280 g/ha, post-emergence at one-leaf stage, rated visually after about 3 weeks vs untreated controls
Protocol: as §2

[15] = tested on: ECHCG; test: Post-emergence herbicidal action against ECHCG; format: in vivo, Echinochloa crus-galli; details: 1280 g/ha, post-emergence at one-leaf stage, rated visually after about 3 weeks vs untreated controls
Protocol: as §2

## C#CCNC(=O)COc1nn(-c2ccccc2)c(-c2ccc(F)cc2)c1Br [III-006]
[1]
  Pre-emergence action against SETVI in %: 100%
[2]
  Pre-emergence action at 320 g/ha against AMARE in %: 90%
  Pre-emergence action against AMARE in %: 90%
[3]
  Post-emergence action against VERPE in %: 80%
[4]
  Pre-emergence action against VERPE in %: 90%
[5]
  Pre-emergence action at 1280 g/ha against ECHCG in %: 100%
[6]
  Post-emergence action against VIOTR in %: 80%
[7]; 320 g/ha
  Post-emergence action against AMARE in %: 80%
[7]; 1280 g/ha
  Post-emergence action against AMARE in %: 100%
[8]; 1280 g/ha
  Pre-emergence action against STEME in %: 100%
[9]
  Post-emergence action against PHBPU in %: 80%
[10]
  Pre-emergence action against POLCO in %: 90%

## C=CCNC(=O)COc1nn(-c2ccc(F)cc2)c(-c2cccc(F)c2)c1Br [III-015]
[1]
  Pre-emergence action against SETVI in %: 100%
[2]
  Pre-emergence action against AMARE in %: 100%
[3]
  Post-emergence action against VERPE in %: 90%
[4]
  Pre-emergence action against VERPE in %: 90%
[5]
  Pre-emergence action at 1280 g/ha against ECHCG in %: 100%
[6]
  Post-emergence action against VIOTR in %: 80%
[7]; 320 g/ha
  Post-emergence action against AMARE in %: 80%
[8]; 1280 g/ha
  Pre-emergence action against STEME in %: 100%
[9]
  Post-emergence action against PHBPU in %: 80%
[10]
  Pre-emergence action against POLCO in %: 90%
[11]
  Post-emergence action against POLCO in %: 80%

## COC(=O)COc1nn(-c2ccc(F)cc2)c(-c2ccccc2)c1C#N [I-011]
[12]
  Post-emergence action against STEME in %: 80%
[2]
  Pre-emergence action against AMARE in %: 90%
[3]
  Post-emergence action against VERPE in %: 80%
[13]; 320 g/ha
  Post-emergence action against MATIN in %: 90%
[13]; 1280 g/ha
  Post-emergence action against MATIN in %: 90%
[5]
  Pre-emergence action at 1280 g/ha against ECHCG in %: 80%
[11]
  Post-emergence action against POLCO in %: 80%

## CCOC(=O)COc1nn(-c2ccc(F)cc2F)c(-c2ccccc2)c1Br [I-079]
[1]
  Pre-emergence action against SETVI in %: 100%
[12]
  Post-emergence action against STEME in %: 100%
[2]
  Pre-emergence action at 320 g/ha against AMARE in %: 80%
  Pre-emergence action against AMARE in %: 100%
[3]
  Post-emergence action against VERPE in %: 80%
[13]; 320 g/ha
  Post-emergence action against MATIN in %: 80%
[13]; 1280 g/ha
  Post-emergence action against MATIN in %: 100%
[14]
  Post-emergence action against SETVI in %: 100%
[5]
  Pre-emergence action at 1280 g/ha against ECHCG in %: 90%
[6]
  Post-emergence action against VIOTR in %: 100%
[7]; 320 g/ha
  Post-emergence action against AMARE in %: 80%
[7]; 1280 g/ha
  Post-emergence action against AMARE in %: 100%
[15]
  Post-emergence action against ECHCG in %: 100%
[8]; 1280 g/ha
  Pre-emergence action against STEME in %: 100%
[9]
  Post-emergence action against PHBPU in %: 90%
[10]
  Pre-emergence action against POLCO in %: 80%
[11]
  Post-emergence action against POLCO in %: 80%

## C[Si](C)(C)COC(=O)COc1nn(-c2ccccc2F)c(-c2ccc(F)c(F)c2)c1Br [I-102]
[1]
  Pre-emergence action against SETVI in %: 100%
[12]
  Post-emergence action against STEME in %: 100%
[2]
  Pre-emergence action at 320 g/ha against AMARE in %: 90%
  Pre-emergence action against AMARE in %: 100%
[3]
  Post-emergence action against VERPE in %: 80%
[13]; 320 g/ha
  Post-emergence action against MATIN in %: 80%
[13]; 1280 g/ha
  Post-emergence action against MATIN in %: 100%
[4]
  Pre-emergence action against VERPE in %: 80%
[5]
  Pre-emergence action at 1280 g/ha against ECHCG in %: 100%
[6]
  Post-emergence action against VIOTR in %: 90%
[7]; 320 g/ha
  Post-emergence action against AMARE in %: 80%
[7]; 1280 g/ha
  Post-emergence action against AMARE in %: 90%
[8]; 320 g/ha
  Pre-emergence action against STEME in %: 90%
[8]; 1280 g/ha
  Pre-emergence action against STEME in %: 90%
[9]
  Post-emergence action against PHBPU in %: 90%
[10]
  Pre-emergence action against POLCO in %: 100%

## COC(=O)COc1nn(-c2ccccc2)c(-c2ccc(F)cc2)c1Br [I-101]
[1]
  Pre-emergence action against SETVI in %: 100%
[2]
  Pre-emergence action at 320 g/ha against AMARE in %: 90%
  Pre-emergence action against AMARE in %: 90%
[3]
  Post-emergence action against VERPE in %: 80%
[13]; 320 g/ha
  Post-emergence action against MATIN in %: 90%
[13]; 1280 g/ha
  Post-emergence action against MATIN in %: 90%
[5]
  Pre-emergence action at 1280 g/ha against ECHCG in %: 100%
[6]
  Post-emergence action against VIOTR in %: 100%
[7]; 320 g/ha
  Post-emergence action against AMARE in %: 80%
[7]; 1280 g/ha
  Post-emergence action against AMARE in %: 100%
[8]; 1280 g/ha
  Pre-emergence action against STEME in %: 100%
[9]
  Post-emergence action against PHBPU in %: 90%
[10]
  Pre-emergence action against POLCO in %: 100%
